For assay [1], the system named is PBEF gene expression in WISH cells. As to the kind of experiment: PBEF gene expression in IL-1β-stimulated WISH cells with inhibitors, real-time PCR. Particulars: IL-1β 1 ng/ml; for effect on IL-1β-induced up-regulation of PBEF: inhibitor over a range of dilutions. It counts as cell-based, human. As to the method:
(§1) Thus, the human anmiotic epithelial-like cell line (WISH) was stimultated by addition of IL-1β (1 ng/ml) or by stretching (20%). In order to show any inhibitory effects on the expression of PBEF, a panel of inhibitors (SN50, Curcumin and PDTC) were added over a range of dilutions to both systems. Gene expression was quantitated by real-time PCR and normalized to 18 s.
A general note: In qPCR the cycle at which signal appears reflects the starting amount.

The test system of the next assay is NF-κB. Nature of the assay: NF-κB translocation in WISH cells, anti-p65 immunolabeling. Particulars: after addition of IL-1β. It counts as cell-based, human. On the procedure: as §1
Peak translocation of NF-κB from the cytoplasm to the nucleus occurred one hour after addition of IL-1β and was clearly seen by immunolabeling with an antibody (anti-p65) to one of the subunits of NF-κB. Increased PBEF gene expression also resulted from IL-1β stimulation.

The test system of a further assay is PBEF gene expression. Particulars: Ognjanovic et al., cited from earlier work.
The subject of a further assay is IL-6. Particulars: Keelan et al.; cited from earlier work.
For a further assay, the system named is IL-8. Particulars: Keelan et al.; Laham et al.; cited from earlier work.

Entries after “also recorded” stand apart in the source; their conditions may differ. Like-named read-outs stand apart in the source and are kept apart here.

For the compound `COc1cc(/C=C/C(=O)CC(=O)/C=C/c2ccc(O)c(OC)c2)ccc1O` [Curcumin], in assay [1], the “effect on IL-1β-induced up-regulation of PBEF” value is given as “prevented the up-regulation of PBEF to varying degrees”.

As for `S=C(S)N1CCCC1` [PDTC], in assay [1], the “effect on IL-1β-induced up-regulation of PBEF” value is “prevented the up-regulation of PBEF to varying degrees”.

Consider “IL-1β: proinflammatory cytokine interleukin-1-beta”, for which, in assay [1], the “PBEF gene expression after stimulation” value is recorded as “Increased”. Besides, the “time of peak translocation of NF-κB from the cytoplasm to the nucleus” value in the assay with NF-κB is on record as “one hour”. Moreover, the “PBEF gene expression / transcription” value in the assay with PBEF gene expression is reported as “stimulate; also recorded: induced”. Also, in the assay on IL-6, the IL-6 transcription entry is given as “stimulate”. Further, the IL-8 transcription result in the assay with IL-8 is listed as “stimulate”.

For the compound IL-6: cytokine interleukin-6, in the assay on PBEF gene expression, the “PBEF gene expression / transcription” value is reported as “induced”.

Regarding IL-8: cytokine interleukin-8, in the assay on PBEF gene expression, the “PBEF gene expression / transcription” value was “no such effect”.

As for TNF-α, the figures for the “PBEF gene expression / transcription” value with PBEF gene expression and in the assay with PBEF gene expression (listed as TNF-A) were “induced” and “stimulate”, respectively. Also, the IL-6 transcription entry in the assay on IL-6 is reported as “stimulate”. Besides, the IL-8 transcription entry in the assay with IL-8 is “stimulate”.

These data come from US20050260683A1, “Methods for diagnosing and treating pre-term labor” (University of Hawaii, priority 2002, published 2005).
